The test deals with PMPMEase. The experiment in a line: Inhibition of PMPMEase by drugs, curcumin, fatty acids and prostaglandins. The test is classed as biochemical. Conditions: for concentrations at which PMPMEase is inhibited: concentration range stated in words only.

`CCCCC[C@H](O)/C=C/[C@H]1[C@H](O)CC(=O)[C@@H]1C/C=C\CCCC(=O)O` [PGE2]: the “inhibition of PMPMEase at 1 mM” value (1 mM) was “did not inhibit”.

As to `CCCCC[C@H](O)/C=C/[C@H]1C=CC(=O)[C@@H]1C/C=C\CCCC(=O)O` [Prostaglandin (PG) A2], the “fold less potent than AA as PMPMEase inhibitor” value (relative to arachidonic acid (AA)) is on record as 63 fold.

Take `CCCCC/C=C\C/C=C\C/C=C\C/C=C\CCCC(=O)O` [arachidonic acid]: the “concentrations at which PMPMEase is inhibited” value is reported as “micromolar concentrations”.

For `COc1cc(/C=C/C(=O)CC(=O)/C=C/c2ccc(O)c(OC)c2)ccc1O` [curcumin], the “concentrations at which PMPMEase is inhibited” value is given as “micromolar concentrations”.

For `O=P1(N(CCCl)CCCl)NCCCO1` (stereo not drawn) [cyclophosphamide], the “concentrations at which PMPMEase is inhibited” value is given as “millimolar concentrations”.

Regarding `CC/C(=C(\c1ccccc1)c1ccc(OCCN(C)C)cc1)c1ccccc1` [tamoxifen], the “concentrations at which PMPMEase is inhibited” value was “millimolar concentrations”.

The values above are taken from US8592173B2, “Cancer diagnosis by measuring polyisoprenylated methylated protein methyl esterase activity” (Florida Agricultural and Mechanical University, priority 2011, dated 2013).
